Experimental data published in patent US8461328B2, “Tricyclic heterocyclic compounds, compositions and methods of use thereof” (Genentech, Inc., priority 2010, dated 2013).

Experiments:
Type in all cases: biochemical
[1] = molecular target: T1, JAK3 (Homo sapiens, UniProt P52333); assay: JAK3 inhibition (Table 4); conditions: read-out: JAK3 Ki
T1 construct: made in house; host or cells: SF9 insect cells (baculovirus)

[2] = molecular target: T2, TYK2 (Homo sapiens, UniProt P29597); assay: TYK2 inhibition (Table 4)
T2 construct: made in house; host or cells: SF9 insect cells (baculovirus)
T2 sequence (P29597 873-1187): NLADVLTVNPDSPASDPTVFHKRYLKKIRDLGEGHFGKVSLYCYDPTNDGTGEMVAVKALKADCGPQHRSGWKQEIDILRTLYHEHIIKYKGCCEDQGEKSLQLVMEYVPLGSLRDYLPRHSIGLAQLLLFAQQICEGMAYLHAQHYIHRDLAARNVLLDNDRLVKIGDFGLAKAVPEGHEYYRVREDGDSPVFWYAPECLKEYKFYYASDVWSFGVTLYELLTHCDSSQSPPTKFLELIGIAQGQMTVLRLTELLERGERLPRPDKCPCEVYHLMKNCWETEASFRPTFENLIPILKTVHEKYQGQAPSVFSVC

[3] = molecular target: T3, JAK1 (Homo sapiens, UniProt P23458); assay: JAK1 inhibition (Table 4); conditions: read-out: JAK1 Ki
T3 construct: made in house; host or cells: SF9 insect cells (baculovirus)
T3 sequence (P23458 852-1154): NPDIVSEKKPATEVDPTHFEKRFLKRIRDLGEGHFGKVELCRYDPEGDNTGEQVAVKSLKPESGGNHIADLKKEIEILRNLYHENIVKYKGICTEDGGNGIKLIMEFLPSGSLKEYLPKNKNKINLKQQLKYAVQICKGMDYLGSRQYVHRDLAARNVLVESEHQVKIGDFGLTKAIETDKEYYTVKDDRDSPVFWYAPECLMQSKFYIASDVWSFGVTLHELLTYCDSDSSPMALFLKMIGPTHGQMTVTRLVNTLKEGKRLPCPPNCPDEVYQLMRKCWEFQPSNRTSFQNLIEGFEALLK

[4] = molecular target: T4, JAK2 (Homo sapiens, UniProt O60674); assay: JAK2 inhibition (Table 4); conditions: read-out: JAK2 Ki
T4 construct: made in house; host or cells: SF9 insect cells (baculovirus)
T4 sequence (O60674 812-1132): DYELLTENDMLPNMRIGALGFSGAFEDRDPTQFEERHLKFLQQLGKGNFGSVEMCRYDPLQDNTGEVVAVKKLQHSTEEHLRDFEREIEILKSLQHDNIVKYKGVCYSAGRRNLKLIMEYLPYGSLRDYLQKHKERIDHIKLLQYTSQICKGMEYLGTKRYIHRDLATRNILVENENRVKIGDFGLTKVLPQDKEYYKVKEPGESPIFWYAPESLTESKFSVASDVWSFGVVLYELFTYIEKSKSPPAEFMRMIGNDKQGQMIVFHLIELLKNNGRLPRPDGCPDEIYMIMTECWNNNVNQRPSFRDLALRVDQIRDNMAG

T1 sequence (P52333 783-1124): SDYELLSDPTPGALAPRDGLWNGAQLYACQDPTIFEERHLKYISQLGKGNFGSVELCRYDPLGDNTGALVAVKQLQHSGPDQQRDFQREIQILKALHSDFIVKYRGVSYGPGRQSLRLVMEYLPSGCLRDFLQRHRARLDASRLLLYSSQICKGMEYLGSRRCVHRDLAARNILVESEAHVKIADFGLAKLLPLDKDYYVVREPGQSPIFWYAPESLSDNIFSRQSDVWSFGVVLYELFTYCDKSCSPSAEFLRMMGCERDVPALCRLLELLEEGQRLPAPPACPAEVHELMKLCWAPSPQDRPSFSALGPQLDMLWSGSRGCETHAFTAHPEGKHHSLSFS

| Ki [1] [nM] | Ki [2] [nM] | Ki [3] [nM] | Ki [4] [nM] | Structure (SMILES) |
| --- | --- | --- | --- | --- |
| 51.8 | 140 | 13.9 | 31.5 | CC(C)(O)Cc1nc2cnc3[nH]ccc3c2n1C1CCN(CCC#N)CC1 [Example 346, 3-{4-[2-(2-Hydroxy-2-methyl-propyl)-6H-1,3,5,6-tetraaza-as-indacen-1-yl)-piperidin-1-yl}-propionitrile] |
| 136 | 130 | 4.96 | 14.5 | O=C(N[C@H]1CC[C@H](n2cnc3cnc4[nH]ccc4c32)CC1)OC1CCCC1 [Example 347, [4-(6H-1,3,5,6-Tetraaza-as-indacen-1-yl)-cyclohexyl]-carbamic acid cyclopentyl ester] |
| 78.5 | 148 | 5.6 | 15 | CC1(COC(=O)N[C@H]2CC[C@H](n3cnc4cnc5[nH]ccc5c43)CC2)CC1 [Example 348, [4-(6H-1,3,5,6-Tetraaza-as-indacen-1-yl)-cyclohexyl]-carbamic acid 1-methyl-cyclopropylmethyl ester] |
| 120 | 113 | 15.3 | 19 | CC(C)(C)OC(=O)N1CCC[C@@H](n2cnc3cnc4[nH]ccc4c32)C1 [Example 349, (R)-3-(6H-1,3,5,6-Tetraaza-as-indacen-1-yl)-piperidine-1-carboxylic acid tert-butyl ester] |
| 216 | 87.4 | 8.27 | 15 | COC(=O)N[C@H]1CC[C@H](n2nnc3cnc4[nH]ccc4c32)CC1 [Example 353, [4-(6H-1,2,3,5,6-Pentaaza-as-indacen-1-yl)-cyclohexyl]-carbamic acid methyl ester] |
| 120 | 10.9 | 2.5 | 5.24 | Cc1nc2cnc3[nH]ccc3c2n1C1CCN(CC(O)(C(F)(F)F)C(F)(F)F)CC1 [Example 354, 1,1,1,3,3,3-Hexafluoro-2-[4-(2-methyl-6H-1,3,5,6-tetraaza-as-indacen-1-yl)-piperidin-1-ylmethyl]-propan-2-ol] |
| 209 | 192 | 10.6 | 28.5 | COCCOC(=O)N[C@H]1CC[C@H](n2cnc3cnc4[nH]ccc4c32)CC1 [Example 356, [4-(6H-1,3,5,6-Tetraaza-as-indacen-1-yl)-cyclohexyl]-carbamic acid 2-methoxy-ethyl ester] |
| 434 | 147 | 22.2 | 82.6 | CN(C)CCOC(=O)N[C@H]1CC[C@H](n2cnc3cnc4[nH]ccc4c32)CC1 [Example 358, [4-(6H-1,3,5,6-Tetraaza-as-indacen-1-yl)-cyclohexyl]-carbamic acid 2-dimethylamino-ethyl ester] |
| 67.1 | 52.8 | 12.4 | 10.5 | O=S(=O)(c1ccccc1)N1CCC[C@@H](n2cnc3cnc4[nH]ccc4c32)C1 [Example 359, 1-((R)-1-Benzenesulfonyl-piperidin-3-yl)-1,6-dihydro-1,3,5,6-tetraaza-as-indacene] |
| 37.2 | 40.8 | 8.43 | 8.12 | N#Cc1ccc(S(=O)(=O)N2CCC[C@@H](n3cnc4cnc5[nH]ccc5c43)C2)cc1 [Example 360, 4-[(R)-3-(6H-1,3,5,6-Tetraaza-as-indacen-1-yl)-piperidine-1-sulfonyl]-benzonitrile] |
| 354 | 732 | 379 | 248 | CS(=O)(=O)N1CCC(n2c(-c3cccnc3)nc3cnc4[nH]ccc4c32)CC1 [Example 361, 1-(1-Methanesulfonyl-piperidin-4-yl)-2-pyridin-3-yl-1,6-dihydro-1,3,5,6-tetraaza-as-indacene] |
| 123 | 54.6 | 6.05 | 11.2 | Cc1nc2cnc3[nH]ccc3c2n1C1CCN(C2COC2)CC1 [Example 363, 2-Methyl-1-(1-oxetan-3-yl-piperidin-4-yl)-1,6-dihydro-1,3,5,6-tetraaza-as-indacene] |
| 171 | 207 | 36.9 | 179 | c1cc2c(ncc3ncn([C@H]4CCCNC4)c32)[nH]1 [Example 364, (S)-1-Piperidin-3-yl-1,6-dihydro-1,3,5,6-tetraaza-as-indacene] |
| 27.8 | 77.9 | 2.95 | 16.7 | N#CCCN1CCC(n2c(CCNS(=O)(=O)C3CC3)nc3cnc4[nH]ccc4c32)CC1 [Example 370, Cyclopropanesulfonic acid (2-{1-[1-(2-cyano-ethyl)-piperidin-4-yl]-1,6-dihydro-1,3,5,6-tetraaza-as-indacen-2-yl}-ethyl)-amide] |
| 48.5 | 178 | 4.82 | 35.5 | COCCC(=O)NCCc1nc2cnc3[nH]ccc3c2n1C1CCN(CCC#N)CC1 [Example 371, N-(2-{1-[1-(2-Cyano-ethyl)-piperidin-4-yl]-1,6-dihydro-1,3,5,6-tetraaza-as-indacen-2-yl}-ethyl)-3-methoxy-propionamide] |
| 28.8 | 135 | 4.59 | 22 | COCC(=O)NCCc1nc2cnc3[nH]ccc3c2n1C1CCN(CCC#N)CC1 [Example 372, N-(2-{1-[1-(2-Cyano-ethyl)-piperidin-4-yl]-1,6-dihydro-1,3,5,6-tetraaza-as-indacen-2-yl}-ethyl)-2-methoxy-acetamide] |
| 52 | 120 | 4.07 | 27 | N#CCCN1CCC(n2c(CCNC(=O)c3ccc(F)cc3)nc3cnc4[nH]ccc4c32)CC1 [Example 373, N-(2-{1-[1-(2-Cyano-ethyl)-piperidin-4-yl]-1,6-dihydro-1,3,5,6-tetraaza-as-indacen-2-yl}-ethyl)-4-fluoro-benzamide] |
| 100 | 350 | 4.69 | 89.4 | CC(C)(C)C(=O)NCCc1nc2cnc3[nH]ccc3c2n1C1CCN(CCC#N)CC1 [Example 374, N-(2-{l-[l-(2-Cyano-ethyl)-piperidin-4-yl]-1,6-dihydro-1,3,5,6-tetraaza-as-indacen-2-yl}-ethyl)-2,2-dimethyl-propionamide] |
| 59.8 | 158 | 4.11 | 43 | N#CCCN1CCC(n2c(CCNC(=O)C3CCC3)nc3cnc4[nH]ccc4c32)CC1 [Example 375, Cyclobutanecarboxylic acid (2-{1-[1-(2-cyano-ethyl)-piperidin-4-yl]-1,6-dihydro-1,3,5,6-tetraaza-as-indacen-2-yl}-ethyl)-amide] |
| 61.9 | 188 | 4.15 | 38.6 | CC(C)CC(=O)NCCc1nc2cnc3[nH]ccc3c2n1C1CCN(CCC#N)CC1 [Example 376, N-(2-{1-[1-(2-Cyano-ethyl)-piperidin-4-yl]-1,6-dihydro-1,3,5,6-tetraaza-as-indacen-2-yl}-ethyl)-3-methyl-butyramide] |
| 50.3 | 185 | 3.64 | 29.5 | N#CCCN1CCC(n2c(CCNC(=O)C3CC3)nc3cnc4[nH]ccc4c32)CC1 [Example 377, Cyclopropanecarboxylic acid (2-{1-[1-(2-cyano-ethyl)-piperidin-4-yl]-1,6-dihydro-1,3,5,6-tetraaza-as-indacen-2-yl}-ethyl)-amide] |
| 61.3 | 226 | 5.03 | 48.4 | CC(C)C(=O)NCCc1nc2cnc3[nH]ccc3c2n1C1CCN(CCC#N)CC1 [Example 378, N-(2-{1-[1-(2-Cyano-ethyl)-piperidin-4-yl]-1,6-dihydro-1,3,5,6-tetraaza-as-indacen-2-yl}-ethyl)-isobutyramide] |
| 26.2 | 117 | 3.54 | 18 | CC(=O)NCCc1nc2cnc3[nH]ccc3c2n1C1CCN(CCC#N)CC1 [Example 379, N-(2-{1-[1-(2-Cyano-ethyl)-piperidin-4-yl]-1,6-dihydro-1,3,5,6-tetraaza-as-indacen-2-yl}-ethyl)-acetamide] |
| 62.6 | 142 | 3.98 | 36 | N#CCCN1CCC(n2c(CCNC(=O)c3ccccc3)nc3cnc4[nH]ccc4c32)CC1 [Example 380, N-(2-{1-[1-(2-Cyano-ethyl)-piperidin-4-yl]-1,6-dihydro-1,3,5,6-tetraaza-as-indacen-2-yl}-ethyl)-benzamide] |
| 1840 | 1990 | 87.1 | 1270 | CCCS(=O)(=O)N1CCC(n2c(Cc3conc3C)nc3cnc4[nH]ccc4c32)CC1 [Example 381, 2-(3-Methyl-isoxazol-4-ylmethyl)-1-[1-(propane-1-sulfonyl)-piperidin-4-yl]-1,6-dihydro-1,3,5,6-tetraaza-as-indacene] |
| 538 | 733 | 134 | 589 | NC(=O)Cc1nc2cnc3[nH]ccc3c2n1C1CCN(S(=O)(=O)C2CC2)CC1 [Example 382, 2-[1-(1-Cyclopropanesulfonyl-piperidin-4-yl)-1,6-dihydro-1,3,5,6-tetraaza-as-indacen-2-yl]-acetamide] |
| 21.4 | 217 | 9.88 | 35.6 | N#CCCN1CCC(n2c(CC3CC3)nc3cnc4[nH]ccc4c32)CC1 [Example 383, 3-[4-(2-Cyclopropylmethyl-6H-1,3,5,6-tetraaza-as-indacen-1-yl)-piperidin-1-yl]-propionitrile] |
